Measurements from the NIST ThermoML archive (doi:10.1016/j.fluid.2007.01.001).

Experiment: xn = mol fraction of the nth substance listed
Conditions: 101 kPa, Liquid; for viscosity: Capillary tube (Ostwald / Ubbelohde) method; for speed of sound: Frequency=2 MHz, Linear variable-path acoustic interferometer; for mass density: Pycnometric method

CCCCC(C)O (stereo not given) [2-hexanol] + Cc1ccccc1
Conditions | mass density, 298.15 K [kg/m3] | mass density, 308.15 K [kg/m3] | speed of sound, 298.15 K [m/s] | speed of sound, 308.15 K [m/s] | viscosity, 298.15 K [mPa·s] | viscosity, 308.15 K [mPa·s]
x2 = 0 | 810.84 | 801.75 | 1290 | 1255 | 4.105 | 2.92
x2 = 0.0497 | 812.91 | 803.69 | 1286 | 1251 | 3.548 | 2.566
x2 = 0.1007 | 815.08 | 805.85 | 1284 | 1245 | 3.087 | 2.273
x2 = 0.1588 | 817.53 | 808.16 | 1281 | 1243 | 2.741 | 1.935
x2 = 0.1993 | 819.29 | 809.89 | 1278 | 1240 | 2.427 | 1.703
x2 = 0.252 | 821.5 | 812.03 | 1274 | 1237 | 2.11 | 1.519
x2 = 0.2999 | 823.59 | 813.99 | 1270 | 1235 | 1.849 | 1.303
x2 = 0.3495 | 825.77 | 816.07 | 1269 | 1232 | 1.619 | 1.153
x2 = 0.4016 | 828.16 | 818.34 | 1267 | 1230 | 1.439 | 1.046
x2 = 0.4468 | 830.21 | 820.35 | 1265 | 1229 | 1.318 | 0.962
x2 = 0.5012 | 832.7 | 822.9 | 1265 | 1228 | 1.165 | 0.85
x2 = 0.5502 | 835.1 | 825.27 | 1264 | 1228 | 1.061 | 0.794
x2 = 0.6003 | 837.61 | 827.79 | 1263 | 1228 | 0.953 | 0.766
x2 = 0.6492 | 840.23 | 830.36 | 1267 | 1229 | 0.92 | 0.689
x2 = 0.7008 | 843.05 | 833.28 | 1268 | 1230 | 0.866 | 0.671
x2 = 0.7476 | 845.75 | 835.92 | 1271 | 1232 | 0.84 | 0.611
x2 = 0.8006 | 848.93 | 839.1 | 1276 | 1237 | 0.762 | 0.579
x2 = 0.8502 | 852.09 | 842.25 | 1280 | 1242 | 0.686 | 0.561
x2 = 0.8945 | 855.01 | 845.2 | 1286 | 1249 | 0.649 | 0.531
x2 = 0.9407 | 858.09 | 848.38 | 1294 | 1257 | 0.638 | 0.527
